Experimental data reported in PubChem BioAssay AID330 (DTP/NCI, 2004).
Toxic doses and inconclusive results are not listed.

Tested on: P388 leukemia ip, CD2F1 mice, survival T/C
Test: NCI In Vivo Anticancer Drug Screen. Data for tumor model P388 Leukemia (intraperitoneal) in CD2F1 (CDF1) mice
Conditions: endpoint: median survival time, higher = longer survival
Procedure, shortened: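 Mice carrying the transplanted tumor received test compound or vehicle. Survival was recorded in each group, and the value is the treated-group measurement divided by that of the vehicle-treated control group.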

[1] = dose: 60.0 mg/kg/injection, schedule: Q01DX005 (ip), vehicle: saline with Tween-80
[2] = dose: 50.0 mg/kg/injection, schedule: Q01DX009 (ip), vehicle: saline with Tween-80
[3] = dose: 100.0 mg/kg/injection, schedule: Q01DX009 (ip), vehicle: saline with Tween-80
[4] = dose: 200.0 mg/kg/injection, schedule: Q01DX009 (ip), vehicle: saline with Tween-80
[5] = dose: 50.0 mg/kg/injection, schedule: Q01DX005 (ip), vehicle: Klucel (hydroxypropylcellulose) (HPC)

**Q.** Which T/C (dose: 1.0 mg/kg/injection, schedule: Q01DX005 (ip), vehicle: Klucel (hydroxypropylcellulose) (HPC)) does the source give for `CC(C)(O)[C@@H]1Cc2cc3ccc(=O)oc3cc2O1` here?
**A.** 89 % of control

**Q.** And the T/C (dose: 2.0 mg/kg/injection, schedule: Q01DX005 (ip), vehicle: Klucel (hydroxypropylcellulose) (HPC))?
**A.** 102 % of control

**Q.** What about the T/C (dose: 4.0 mg/kg/injection, schedule: Q01DX005 (ip), vehicle: Klucel (hydroxypropylcellulose) (HPC)) of the same compound?
**A.** 98 % of control

**Q.** And the T/C (dose: 8.0 mg/kg/injection, schedule: Q01DX005 (ip), vehicle: Klucel (hydroxypropylcellulose) (HPC))?
**A.** 96 % of control

**Q.** What about the T/C (dose: 16.0 mg/kg/injection, schedule: Q01DX005 (ip), vehicle: Klucel (hydroxypropylcellulose) (HPC)) of the same compound?
**A.** 96 % of control

**Q.** What does the source list for `COc1ccc2ccc3ccc(OC)c(OC(C)=O)c3c2c1`?
**A.** T/C (dose: 60.0 mg/kg/injection, schedule: Q01DX005 (ip), vehicle: Klucel (hydroxypropylcellulose) (HPC)): 100 % of control; T/C (dose: 120.0 mg/kg/injection, schedule: Q01DX005 (ip), vehicle: Klucel (hydroxypropylcellulose) (HPC)): 98 % of control; T/C (dose: 240.0 mg/kg/injection, schedule: Q01DX005 (ip), vehicle: Klucel (hydroxypropylcellulose) (HPC)): 91 % of control

**Q.** What does the source list for `OCc1nccn1Cc1ccccc1`?
**A.** T/C (dose: 50.0 mg/kg/injection, schedule: Q01DX001 (ip), vehicle: saline): 115 % of control; T/C (dose: 100.0 mg/kg/injection, schedule: Q01DX001 (ip), vehicle: saline): 95 % of control

**Q.** For `CN(C)CCC(/C=C/c1ccco1)=N\NC(=S)Nc1ccc(Cl)cc1`, which T/C (dose: 100.0 mg/kg/injection, schedule: Q01DX001 (ip), vehicle: saline with Tween-80) is on record?
**A.** 97 % of control

**Q.** And the T/C (dose: 200.0 mg/kg/injection, schedule: Q01DX001 (ip), vehicle: saline with Tween-80)?
**A.** 101 % of control

**Q.** What about the T/C (dose: 400.0 mg/kg/injection, schedule: Q01DX001 (ip), vehicle: saline with Tween-80) of the same compound?
**A.** 103 % of control

**Q.** Which results are given for `C/C=C/c1cc2n(c1)C(=O)c1cc(OC3OC(C)C(NC)C(C)(O)C3O)c(C)c(O)c1NC2O` (stereo not drawn)?
**A.** T/C (dose: 0.02 mg/kg/injection, schedule: Q04DX003 (ip), vehicle: saline): 94 % of control; T/C (dose: 0.04 mg/kg/injection, schedule: Q04DX003 (ip), vehicle: saline): 89 % of control; T/C (dose: 0.3 micrograms/kg/injection, schedule: Q03DX003 (ip), vehicle: DMSO): 110 % of control; T/C (dose: 1.0 micrograms/kg/injection, schedule: Q01DX001 (ip), vehicle: DMSO): 120 % of control; T/C (dose: 1.0 micrograms/kg/injection, schedule: Q01DX009 (ip), vehicle: saline): 100 % of control; T/C (dose: 4.0 micrograms/kg/injection, schedule: Q01DX009 (ip), vehicle: saline): 117 % of control; T/C (dose: 4.0 micrograms/kg/injection, schedule: Q04DX003 (ip), vehicle: DMSO): 120 % of control; T/C (dose: 16.0 micrograms/kg/injection, schedule: Q01DX001 (ip), vehicle: DMSO): 173 % of control; T/C (dose: 16.0 micrograms/kg/injection, schedule: Q03DX003 (ip), vehicle: DMSO): 180 % of control; T/C (dose: 16.0 micrograms/kg/injection, schedule: Q04DX003 (ip), vehicle: DMSO): 123 % of control; T/C (dose: 32.0 micrograms/kg/injection, schedule: Q01DX001 (ip), vehicle: DMSO): 95 % of control

**Q.** For `[Cu+2].[O-]/C(=N\N=C\c1ccccn1)c1ccccc1O.[O-]/C(=N\N=C\c1ccccn1)c1ccccc1O`, which T/C (dose: 50.0 mg/kg/injection, schedule: Q04DX002 (ip), vehicle: saline with Tween-80) is on record?
**A.** 98 % of control

**Q.** And the T/C (dose: 100.0 mg/kg/injection, schedule: Q04DX002 (ip), vehicle: saline with Tween-80)?
**A.** 95 % of control

**Q.** What about the T/C (dose: 200.0 mg/kg/injection, schedule: Q04DX002 (ip), vehicle: saline with Tween-80) of the same compound?
**A.** 94 % of control

**Q.** Which results are given for `CC1CC2(CC(COc3ccccc3C(N)=O)OC2=O)C(=O)O1` (stereo not drawn)?
**A.** T/C (dose: 50.0 mg/kg/injection, schedule: Q01DX005 (ip), vehicle: saline with Tween-80): 100 % of control; T/C (dose: 100.0 mg/kg/injection, schedule: Q01DX005 (ip), vehicle: saline with Tween-80): 100 % of control; T/C (dose: 200.0 mg/kg/injection, schedule: Q01DX005 (ip), vehicle: saline with Tween-80): 97 % of control

**Q.** With `O=C(O)c1cn2cccnc2n1` as the compound, how does the T/C (dose: 100.0 mg/kg/injection, schedule: Q01DX001 (ip), vehicle: Klucel (hydroxypropylcellulose) (HPC)) read?
**A.** 100 % of control

**Q.** What about the T/C (dose: 200.0 mg/kg/injection, schedule: Q01DX001 (ip), vehicle: Klucel (hydroxypropylcellulose) (HPC)) of the same compound?
**A.** 98 % of control

**Q.** And the T/C (dose: 400.0 mg/kg/injection, schedule: Q01DX001 (ip), vehicle: Klucel (hydroxypropylcellulose) (HPC))?
**A.** 99 % of control

**Q.** For `Cc1csnn1`, which T/C (dose: 15.0 mg/kg/injection, schedule: Q01DX005 (ip), vehicle: saline with Tween-80) is on record?
**A.** 105 % of control

**Q.** What about the T/C (dose: 30.0 mg/kg/injection, schedule: Q01DX005 (ip), vehicle: saline with Tween-80) of the same compound?
**A.** 100 % of control

**Q.** What about the T/C [1] of the same compound?
**A.** 102 % of control

**Q.** What does the source list for `CCN(CC)CCNN`?
**A.** T/C (dose: 50.0 mg/kg/injection, schedule: Q01DX005 (ip), vehicle: saline): 100 % of control; T/C (dose: 100.0 mg/kg/injection, schedule: Q01DX005 (ip), vehicle: saline): 100 % of control; T/C (dose: 200.0 mg/kg/injection, schedule: Q01DX005 (ip), vehicle: saline): 103 % of control

**Q.** How did the T/C [1] turn out when `[Cu+2].[Cu+2].c1ccc2c(c1)-c1nc-2nc2[n-]c(nc3nc(nc4[n-]c(n1)c1ccccc41)-c1ccccc1-3)c1cc3c4nc5nc(nc6[n-]c(nc7nc(nc([n-]4)c3cc21)-c1ccccc1-7)c1ccccc61)-c1ccccc1-5` was run?
**A.** 100 % of control

**Q.** What about the T/C (dose: 120.0 mg/kg/injection, schedule: Q01DX005 (ip), vehicle: saline with Tween-80) of the same compound?
**A.** 89 % of control

**Q.** What about the T/C (dose: 240.0 mg/kg/injection, schedule: Q01DX005 (ip), vehicle: saline with Tween-80) of the same compound?
**A.** 95 % of control

**Q.** For `CCOC(=O)c1c(C)cn[nH]c1=O`, which T/C [2] is on record?
**A.** 96 % of control

**Q.** And the T/C [3]?
**A.** 99 % of control

**Q.** What about the T/C [4] of the same compound?
**A.** 95 % of control

**Q.** How did the T/C [2] turn out when `O=S(=O)(NC(Cc1nc2ccccc2[nH]1)c1nc2ccccc2[nH]1)c1ccccc1` (stereo not drawn) was run?
**A.** 95 % of control

**Q.** And the T/C [3]?
**A.** 89 % of control

**Q.** And the T/C [4]?
**A.** 93 % of control

**Q.** For `Oc1ccc(Cl)cc1C1CCCCC1`, which T/C (dose: 50.0 mg/kg/injection, schedule: Q01DX009 (ip), vehicle: saline) is on record?
**A.** 100 % of control

**Q.** And the T/C (dose: 100.0 mg/kg/injection, schedule: Q01DX009 (ip), vehicle: saline)?
**A.** 100 % of control

**Q.** And the T/C (dose: 200.0 mg/kg/injection, schedule: Q01DX009 (ip), vehicle: saline)?
**A.** 98 % of control

**Q.** `CONC(=O)N/N=C/c1c(CO)cnc(C)c1O` was tested. Which T/C (dose: 12.5 mg/kg/injection, schedule: Q01DX005 (ip), vehicle: Klucel (hydroxypropylcellulose) (HPC)) did it give?
**A.** 104 % of control

**Q.** What about the T/C (dose: 25.0 mg/kg/injection, schedule: Q01DX005 (ip), vehicle: Klucel (hydroxypropylcellulose) (HPC)) of the same compound?
**A.** 100 % of control

**Q.** What about the T/C [5] of the same compound?
**A.** 94 % of control

**Q.** For `C1=C[N-]c2c3c(ccc2=C1)=CC=C[N-]3.C1=C[N-]c2c3c(ccc2=C1)=CC=C[N-]3.O=S(=O)(O)O.[Cu+2]`, which T/C (dose: 1.56 mg/kg/injection, schedule: Q04DX002 (ip), vehicle: Klucel (hydroxypropylcellulose) (HPC)) is on record?
**A.** 117 % of control

**Q.** And the T/C (dose: 3.12 mg/kg/injection, schedule: Q04DX002 (ip), vehicle: Klucel (hydroxypropylcellulose) (HPC))?
**A.** 107 % of control

**Q.** And the T/C (dose: 6.25 mg/kg/injection, schedule: Q04DX002 (ip), vehicle: Klucel (hydroxypropylcellulose) (HPC))?
**A.** 107 % of control

**Q.** And the T/C (dose: 12.5 mg/kg/injection, schedule: Q04DX002 (ip), vehicle: Klucel (hydroxypropylcellulose) (HPC))?
**A.** 115 % of control

**Q.** With `Cc1ccc(N=C(c2ccccc2)N(O)c2ccc(Cl)cc2)cc1Cl` as the compound, how does the T/C [5] read?
**A.** 100 % of control

**Q.** And the T/C (dose: 100.0 mg/kg/injection, schedule: Q01DX005 (ip), vehicle: Klucel (hydroxypropylcellulose) (HPC))?
**A.** 97 % of control

**Q.** What about the T/C (dose: 200.0 mg/kg/injection, schedule: Q01DX005 (ip), vehicle: Klucel (hydroxypropylcellulose) (HPC)) of the same compound?
**A.** 94 % of control

**Q.** With `C=C1CC2(CCC3C4CC=C5CC(O)CCC5(C)C4CCC32C)OC1=O` (stereo not drawn) as the compound, how does the T/C (dose: 100.0 mg/kg/injection, schedule: Q04DX003 (ip), vehicle: Klucel (hydroxypropylcellulose) (HPC)) read?
**A.** 104 % of control

**Q.** What about the T/C (dose: 200.0 mg/kg/injection, schedule: Q04DX003 (ip), vehicle: Klucel (hydroxypropylcellulose) (HPC)) of the same compound?
**A.** 105 % of control

**Q.** What about the T/C (dose: 400.0 mg/kg/injection, schedule: Q04DX003 (ip), vehicle: Klucel (hydroxypropylcellulose) (HPC)) of the same compound?
**A.** 97 % of control

**Q.** For `CN(C)C1C(O)C2Oc3c(cc(O)c4c3C(=O)c3cc5c(c(O)c3C4=O)C(OCCN)CC(C)(O)C5)C(C)(O2)C1O` (stereo not drawn), which T/C (dose: 5.0 mg/kg/injection, schedule: Q01DX009 (ip), vehicle: other) is on record?
**A.** 99 % of control

**Q.** And the T/C (dose: 10.0 mg/kg/injection, schedule: Q01DX009 (ip), vehicle: other)?
**A.** 101 % of control

**Q.** And the T/C (dose: 20.0 mg/kg/injection, schedule: Q01DX009 (ip), vehicle: other)?
**A.** 106 % of control

**Q.** And the T/C (dose: 40.0 mg/kg/injection, schedule: Q01DX009 (ip), vehicle: other)?
**A.** 117 % of control
